According to ChEMBL document CHEMBL5338785, “Development of Aromatic-Linked Diamino Acid Antimicrobial Peptide Mimics with Low Hemolytic Toxicity and Excellent Activity against Methicillin-Resistant Staphylococcus aureus (MRSA)” (J Med Chem, 2023):
Converted amounts (≈) assume the structure as drawn.

Tests used:
[1] = tested on: Escherichia coli; assay: Antibacterial activity against Escherichia coli assessed as bacterial growth inhibition incubated for 18 hrs by CLSI protocol based Mueller-Hinton broth assay; type: functional; conditions: Escherichia coli, read-out: MIC
[2] = tested on: Stenotrophomonas maltophilia; assay: Antibacterial activity against Stenotrophomonas maltophilia assessed as bacterial growth inhibition incubated for 18 hrs by CLSI protocol based Mueller-Hinton broth assay; type: functional; conditions: Stenotrophomonas maltophilia, read-out: MIC
[3] = tested on: Staphylococcus aureus; assay: Antibacterial activity against methicillin-resistant Staphylococcus aureus assessed as bacterial growth inhibition incubated for 18 hrs by CLSI protocol based Mueller-Hinton broth assay; type: functional; conditions: Staphylococcus aureus, read-out: MIC
[4] = Hemolytic activity in sheep RBC assessed as hemolysis incubated for 1 hr by microplate reader method; type: toxicity, cell-based, Ovis aries, Erythrocyte; conditions: sheep red blood cells
[5] = tested on: Enterococcus faecalis; assay: Antibacterial activity against Enterococcus faecalis assessed as bacterial growth inhibition incubated for 18 hrs by CLSI protocol based Mueller-Hinton broth assay; type: functional; conditions: Enterococcus faecalis, 18 h, read-out: MIC
[6] = Selectivity index, ratio of HC50 for hemolytic activity in sheep RBC to MIC for antibacterial activity against methicillin-resistant Staphylococcus aureus assessed as bacterial growth inhibition; type: toxicity; conditions: sheep red blood cells
[7] = tested on: Staphylococcus aureus; assay: Antibacterial activity against methicillin-resistant Staphylococcus aureus clinical isolates assessed as bacterial growth inhibition incubated for 18 hrs by CLSI protocol based Mueller-Hinton broth assay; type: functional

| Structure (SMILES) | MIC ([1]; 18 h) | MIC [2] | MIC [3] | HC50 at 1 h [4] | MIC [5] | selectivity ratio [6] | MIC [7] | MIC [1] |
| --- | --- | --- | --- | --- | --- | --- | --- | --- |
| CCCCCCN(CCCOc1ccc(-c2ccc(OCCCN(CCCCCC)C(=O)[C@@H](N)CCCCN)cc2)cc1)C(=O)[C@@H](N)CCCCN.Cl.Cl.Cl.Cl | 1 µg/mL | 1 µg/mL | 1 µg/mL | 170 µg/mL | 1 µg/mL | 170 | – | – |
| CCCCCCCCCN(CCCCOc1ccc(OCCCCN(CCCCCCCCC)C(=O)[C@@H](N)CCCCN)cc1)C(=O)[C@@H](N)CCCCN.Cl.Cl.Cl.Cl | 2 µg/mL | 1 µg/mL | 2 µg/mL | 12 µg/mL | 1 µg/mL | 6 | – | – |
| CCCCCCCN(CCCOc1cccc(OCCCN(CCCCCCC)C(=O)[C@@H](N)CCCCN)c1)C(=O)[C@@H](N)CCCCN.Cl.Cl.Cl.Cl | 2 µg/mL | 4 µg/mL | 1 µg/mL | 814 µg/mL | 1 µg/mL | 814 | 0.5 µg/mL | – |
| CCCCN(CCCOc1ccccc1-c1ccccc1OCCCN(CCCC)C(=O)[C@@H](N)CCCCN)C(=O)[C@@H](N)CCCCN.Cl.Cl.Cl.Cl | 32 µg/mL | 32 µg/mL | 8 µg/mL | > 1000 µg/mL | 8 µg/mL | > 125 | – | – |
| CCCCCCCCN(CCCOc1ccccc1-c1ccccc1OCCCN(CCCCCCCC)C(=O)[C@@H](N)CCCCN)C(=O)[C@@H](N)CCCCN.Cl.Cl.Cl.Cl | 2 µg/mL | 2 µg/mL | 4 µg/mL | 20 µg/mL | 1 µg/mL | 5 | – | – |
| CCCCCCCN(CCCOc1ccc(OCCCN(CCCCCCC)C(=O)[C@@H](N)CCCCN)cc1)C(=O)[C@@H](N)CCCCN.Cl.Cl.Cl.Cl | 4 µg/mL | 2 µg/mL | 2 µg/mL | 402 µg/mL | 1 µg/mL | 201 | 0.5 µg/mL | – |
| CCCCCCCN(CCCOc1ccccc1)C(=O)[C@@H](N)CCCCN.Cl.Cl | 128 µg/mL | 64 µg/mL | 32 µg/mL | 773 µg/mL | 16 µg/mL | 24.2 | – | – |
| CCCCCCCCN(CCCOc1ccc(-c2ccc(OCCCN(CCCCCCCC)C(=O)[C@@H](N)CCCCN)cc2)cc1)C(=O)[C@@H](N)CCCCN.Cl.Cl.Cl.Cl | 4 µg/mL | 4 µg/mL | 2 µg/mL | < 0.25 µg/mL | 2 µg/mL | < 0.125 | – | – |
| CCCCCCCN(CCCCOc1ccc(OCCCCN(CCCCCCC)C(=O)[C@@H](N)CCCCN)cc1)C(=O)[C@@H](N)CCCCN.Cl.Cl.Cl.Cl | 1 µg/mL | 1 µg/mL | 2 µg/mL | 148 µg/mL | 1 µg/mL | 74 | – | – |
| CCCCCCN(CCCOc1ccccc1OCCCN(CCCCCC)C(=O)[C@@H](N)CCCCN)C(=O)[C@@H](N)CCCCN.Cl.Cl.Cl.Cl | 64 µg/mL | 32 µg/mL | 8 µg/mL | > 1000 µg/mL | 8 µg/mL | > 125 | – | – |
| CCCCCCCCCN(CCOc1ccc(OCCN(CCCCCCCCC)C(=O)[C@@H](N)CCCCN)cc1)C(=O)[C@@H](N)CCCCN.Cl.Cl.Cl.Cl | 2 µg/mL | 2 µg/mL | 2 µg/mL | 21 µg/mL | 1 µg/mL | 10.5 | – | – |
| CCCCCCCCCCN(CCOc1ccc(OCCN(CCCCCCCCCC)C(=O)[C@@H](N)CCCCN)cc1)C(=O)[C@@H](N)CCCCN.Cl.Cl.Cl.Cl | 4 µg/mL | 2 µg/mL | 4 µg/mL | < 2.5 µg/mL | 2 µg/mL | < 0.625 | – | – |
| CCCCCCCN(CCOc1ccc(OCCN(CCCCCCC)C(=O)[C@H](C)N)cc1)C(=O)[C@H](C)N.Cl.Cl | 2 µg/mL | 2 µg/mL | 1 µg/mL | 76 µg/mL | 2 µg/mL | 76 | – | – |
| CCCCCCCN(CCOc1ccc(OCCN(CCCCCCC)C(=O)[C@@H](N)CCCCN)cc1)C(=O)[C@@H](N)CCCCN.Cl.Cl.Cl.Cl | 4 µg/mL | 2 µg/mL | 1 µg/mL | 478 µg/mL | 1 µg/mL | 478 | 0.5 µg/mL | – |
| CCCCCCCN(CCOc1ccc(OCCN(CCCCCCC)C(=O)[C@@H](N)CC(C)C)cc1)C(=O)[C@@H](N)CC(C)C.Cl.Cl | 2 µg/mL | 1 µg/mL | < 0.25 µg/mL | 36 µg/mL | 0.5 µg/mL | > 144 | – | – |
| CCCCCCN(CCCOc1cccc(-c2cccc(OCCCN(CCCCCC)C(=O)[C@@H](N)CCCCN)c2)c1)C(=O)[C@@H](N)CCCCN.Cl.Cl.Cl.Cl | 1 µg/mL | 1 µg/mL | 0.5 µg/mL | 216 µg/mL | 0.5 µg/mL | 432 | – | – |
| CCCCCCCCCCN(CCCOc1ccccc1-c1ccccc1OCCCN(CCCCCCCCCC)C(=O)[C@@H](N)CCCCN)C(=O)[C@@H](N)CCCCN.Cl.Cl.Cl.Cl | 8 µg/mL | 8 µg/mL | 8 µg/mL | 40 µg/mL | 8 µg/mL | 5 | – | – |

| Structure (SMILES) | MIC ([1]; 18 h) | MIC [2] | MIC [3] | HC50 at 1 h [4] | MIC [5] | selectivity ratio [6] | MIC [7] | MIC [1] |
| --- | --- | --- | --- | --- | --- | --- | --- | --- |
| CCCCCCCCCN(CCCOc1ccc(OCCCN(CCCCCCCCC)C(=O)[C@@H](N)CCCCN)cc1)C(=O)[C@@H](N)CCCCN.Cl.Cl.Cl.Cl | 2 µg/mL | 1 µg/mL | 2 µg/mL | 11 µg/mL | 1 µg/mL | 10.5 | – | – |
| CCCCCCCN(CCOc1ccc(OCCN(CCCCCCC)C(=O)[C@@H](N)[C@@H](C)CC)cc1)C(=O)[C@@H](N)[C@@H](C)CC.Cl.Cl | 2 µg/mL | 2 µg/mL | 0.5 µg/mL | 47 µg/mL | 1 µg/mL | 94 | – | – |
| CCCCCCCCN(CCCOc1ccc(OCCCN(CCCCCCCC)C(=O)[C@@H](N)CCCCN)cc1)C(=O)[C@@H](N)CCCCN.Cl.Cl.Cl.Cl | 2 µg/mL | 1 µg/mL | 2 µg/mL | 37 µg/mL | 1 µg/mL | 18.5 | – | – |
| CCCCCCCCN(CCOc1ccc(OCCN(CCCCCCCC)C(=O)[C@@H](N)CCCCN)cc1)C(=O)[C@@H](N)CCCCN.Cl.Cl.Cl.Cl | 2 µg/mL | 1 µg/mL | 1 µg/mL | 93 µg/mL | 0.5 µg/mL | 93 | – | – |
| CCCCCCN(CCCOc1ccc2ccccc2c1-c1c(OCCCN(CCCCCC)C(=O)[C@@H](N)CCCCN)ccc2ccccc12)C(=O)[C@@H](N)CCCCN.Cl.Cl.Cl.Cl (stereo in doubt; 8m) | 2 µg/mL | 1 µg/mL | 1 µg/mL | 61 µg/mL | 1 µg/mL | 61 | – | – |
| CCCCCCCCN(CCCCOc1ccc(OCCCCN(CCCCCCCC)C(=O)[C@@H](N)CCCCN)cc1)C(=O)[C@@H](N)CCCCN.Cl.Cl.Cl.Cl | 2 µg/mL | 1 µg/mL | 2 µg/mL | 28 µg/mL | 1 µg/mL | 14 | – | – |
| CCCCCCCCN(CCCOc1cc2ccccc2cc1OCCCN(CCCCCCCC)C(=O)[C@@H](N)CCCCN)C(=O)[C@@H](N)CCCCN.Cl.Cl.Cl.Cl | 2 µg/mL | 1 µg/mL | 1 µg/mL | 68 µg/mL | 1 µg/mL | 68 | – | – |
| CCCCCCCN(CCOc1ccc(OCCN(CCCCCCC)C(=O)[C@@H](N)Cc2ccccc2)cc1)C(=O)[C@@H](N)Cc1ccccc1.Cl.Cl | > 128 µg/mL | > 128 µg/mL | 2 µg/mL | 145 µg/mL | 1 µg/mL | 72.5 | – | – |
| C[C@@H](O)[C@H]1C(=O)N2C(C(=O)O)=C(S[C@@H]3CN[C@H](C(=O)N(C)C)C3)[C@H](C)[C@H]12 [MEROPENEM] | – | – | – | – | – | – | – | 0.062 µg/mL (≈ 0.162 µM) |
| CCCCCCCCN(CCCOc1ccc2c(OCCCN(CCCCCCCC)C(=O)[C@@H](N)CCCCN)cccc2c1)C(=O)[C@@H](N)CCCN.Cl.Cl.Cl.Cl | 1 µg/mL | 1 µg/mL | 1 µg/mL | 14 µg/mL | 1 µg/mL | 14 | – | – |
| CCCCCCCCN(CCCOc1ccc2ccccc2c1-c1c(OCCCN(CCCCCCCC)C(=O)[C@@H](N)CCCCN)ccc2ccccc12)C(=O)[C@@H](N)CCCCN.Cl.Cl.Cl.Cl (stereo in doubt; 8o) | 8 µg/mL | 4 µg/mL | 4 µg/mL | 100 µg/mL | 2 µg/mL | 25 | – | – |
| CCCCCCN(CCOc1ccc(OCCN(CCCCCC)C(=O)[C@@H](N)CCCCN)cc1)C(=O)[C@@H](N)CCCCN.Cl.Cl.Cl.Cl | 64 µg/mL | 64 µg/mL | 4 µg/mL | > 1000 µg/mL | 8 µg/mL | > 250 | – | – |
| CCCCCCCCN(CCCOc1cccc(-c2cccc(OCCCN(CCCCCCCC)C(=O)[C@@H](N)CCCCN)c2)c1)C(=O)[C@@H](N)CCCCN.Cl.Cl.Cl.Cl | 2 µg/mL | 2 µg/mL | 2 µg/mL | 15 µg/mL | 1 µg/mL | 7.5 | – | – |
| CCCCCCN(CCCOc1ccccc1)C(=O)[C@@H](N)CCCCN.Cl.Cl | 128 µg/mL | 128 µg/mL | 64 µg/mL | > 1000 µg/mL | 64 µg/mL | > 15.6 | – | – |
| CCCCCCCCN(CCCOc1ccccc1)C(=O)[C@@H](N)CCCCN.Cl.Cl | 32 µg/mL | 16 µg/mL | 8 µg/mL | 275 µg/mL | 4 µg/mL | 34 | – | – |
| CCCCCCCCCN(CCCOc1ccccc1)C(=O)[C@@H](N)CCCCN.Cl.Cl | 8 µg/mL | 8 µg/mL | 2 µg/mL | 89 µg/mL | 2 µg/mL | 45.5 | – | – |
